Experimental data from the NIST ThermoML archive (doi:10.1021/je900199j).
Several values for one entry are separate records, joined by “and”; a condition that tells them apart may be missing. Identical values can stand only once. ± gives the expanded uncertainty stated by the source.

Assay: mn = molality of the nth substance listed, in mol/kg
Conditions: 101 kPa, Liquid; for speed of sound: Frequency=4 MHz

[Cl-].[K+] [potassium chloride] + O
m1 = 2.13
Conditions	mass density [kg/m3]	speed of sound [m/s]
298.15 K	1087.7 ± 1.2	1592.8 ± 4.2
303.15 K	1085.7 ± 0.8	1600.4 ± 4.2
308.15 K	1083.6 ± 0.8	1608 ± 4.2
313.15 K	1081.3 ± 0.9	1614 ± 4.2
318.15 K	1078.8 ± 0.9	1617.2 ± 4.2
323.15 K	1076.1 ± 1.3	1622 ± 4.3

O=[N+]([O-])[O-].[K+] [potassium nitrate] + O
m1 = 2.19
Conditions	mass density [kg/m3]	speed of sound
298.15 K	1115 ± 1.2	1558.8 ± 4.2 m/s
303.15 K	1112.5 ± 0.9	1566.8 ± 4.1 m/s
308.15 K	1109.8 ± 0.9	1572.8 ± 4.2 m/s and 1572.6 ± 4.2 m/s
313.15 K	1107 ± 0.9	1577.6 ± 4.2 m/s
318.15 K	1104 ± 1	1582 ± 4.2 m/s
323.15 K	1100.9 ± 1.3	1586.4 ± 4.2 m/s
